From patent US20140303164A1, “THERAPEUTIC COMPOUNDS” (Gilead Sciences, Inc., priority 2013, published 2014)

Legend:
uninfected MT-4 cells = test: Test B: Cytotoxicity Assay; format: cell-based; details: same protocol as Test A, 5 days
Outline: (§1)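 Uninfected MT-4 cells (2000 per well) incubated with diluted compound at 37° C. for 5 days, following the antiviral protocol without HIV-IIIb.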

HIV-IIIb = test: Test A: Antiviral Assay in MT4 Cells; format: cell-based, HIV-1; details: for % inhibition at 0.2 μM: percent inhibition of virus-induced cell killing at 0.2 μM drug concentration; for % inhibition at 0.2 μM / % inhibition at 2 μM: from dose response curve, MT-4 cells, HIV-IIIb, 5 days, values above 100 normalized to 100; for % inhibition at 2 μM: percent inhibition of virus-induced cell killing at 2 μM drug concentration
Method: Test A: Antiviral Assay in MT4 Cells
MT-4 cells were next mixed with HIV-IIIb at an m.o.i of 0.003 for 1 hour, after which time 35 μL of virus/cell mixture (2000 cells) was immediately added to each well containing 40 μL of diluted compound. The plates were then incubated at 37° C. for 5 days. […] Cell lysis was carried out by incubating at room temperature for 10 min and then chemiluminescence was read.

[1] = Test B: Cytotoxicity Assay; format: cell-based; details: human, uninfected MT-4 cells, same protocol as Test A
Outline: as §1

CC(C)(O)C#Cc1ccc(-c2cccc3c(N)n[nH]c23)c([C@H](Cc2cc(F)cc(F)c2)NC(=O)Cn2nc(C(F)(F)F)c3c2C(F)(F)[C@@H]2C[C@H]32)n1 [Compound 29B, N—((S)-1-(3-(3-amino-1H-indazol-7-yl)-6-(3-hydroxy-3-methylbut-1-yn-1-yl)pyridin-2-yl)-2-(3,5-difluorophenyl)ethyl)-2-((3b-S,4aR)-5,5-difluoro-3-(trifluoromethyl)-3b,4,4a,5-tetrahydro-1H-cyclopropa[3,4]cyclopenta[1,2-c]pyrazol-1-yl)acetamide]
CC50 (uninfected MT-4 cells): 15.3 µM
% inhibition at 0.2 μM (HIV-IIIb): 80%
% inhibition at 2 μM (HIV-IIIb): 81%

Cn1nc(NS(C)(=O)=O)c2cccc(-c3ccc(C#C[C@@H](N)CO)nc3[C@H](Cc3cc(F)cc(F)c3)NC(=O)Cn3nc(C(F)(F)F)c4c3C(F)(F)[C@@H]3C[C@H]43)c21 [Compound 59B, N—((S)-1-(6-((R)-3-amino-4-hydroxybut-1-yn-1-yl)-3-(1-methyl-3-(methylsulfonamido)-1H-indazol-7-yl)pyridin-2-yl)-2-(3,5-difluorophenyl)ethyl)-2-((3b-S,4aR)-5,5-difluoro-3-(trifluoromethyl)-3b,4,4a,5-tetrahydro-1H-cyclopropa[3,4]cyclopenta[1,2-c]pyrazol-1-yl)acetamide]
CC50 (uninfected MT-4 cells): 22.4 µM
% inhibition at 0.2 μM (HIV-IIIb): 94%
% inhibition at 2 μM (HIV-IIIb): 94%

Cc1ccc(-c2ccc(C#CC(C)(C)O)nc2[C@H](Cc2cc(F)cc(F)c2)NC(=O)Cn2nc(C(F)F)c3c2C(F)(F)[C@@H]2C[C@H]32)c2c1c(NS(N)(=O)=O)nn2C [Compound 71, 2-((3b-S,4aR)-3-(difluoromethyl)-5,5-difluoro-3b,4,4a,5-tetrahydro-1H-cyclopropa[3,4]cyclopenta[1,2-c]pyrazol-1-yl)-N—((S)-2-(3,5-difluorophenyl)-1-(3-(1,4-dimethyl-3-(sulfamoylamino)-1H-indazol-7-yl)-6-(3-hydroxy-3-methylbut-1-yn-1-yl)pyridin-2-yl)ethyl)acetamide]
CC50 (uninfected MT-4 cells): 9.51 µM
% inhibition at 0.2 μM (HIV-IIIb): 87%
% inhibition at 2 μM (HIV-IIIb): 87%

CC(C)(C)C#Cc1ccc(-c2cccn3c(NS(C)(=O)=O)nnc23)c([C@H](Cc2cc(F)cc(F)c2)NC(=O)Cn2nc(C(F)F)c3c2C(F)(F)[C@@H]2C[C@H]32)n1 [Compound 134, 2-((3bS,4aR)-3-(difluoromethyl)-5,5-difluoro-3b,4,4a,5-tetrahydro-1H-cyclopropa[3,4]cyclopenta[1,2-c]pyrazol-1-yl)-N—((S)-2-(3,5-difluorophenyl)-1-(6-(3,3-dimethylbut-1-yn-1-yl)-3-(3-(methylsulfonamido)-[1,2,4]triazolo[4,3-a]pyridin-8-yl)pyridin-2-yl)ethyl)acetamide]
CC50 (uninfected MT-4 cells): 28 µM
% inhibition at 0.2 μM (HIV-IIIb): 82%
% inhibition at 2 μM (HIV-IIIb): 83%

COc1cc(-c2ccc(Cl)c3c(NS(C)(=O)=O)nn(C)c23)c([C@H](Cc2cc(F)cc(F)c2)NC(=O)Cn2nc(C(F)(F)F)c3c2C(F)(F)[C@@H]2C[C@H]32)nc1C#CC(C)(C)O [Compound 135B, N—((S)-1-(3-(4-chloro-1-methyl-3-(methylsulfonamido)-1H-indazol-7-yl)-6-(3-hydroxy-3-methylbut-1-yn-1-yl)-5-methoxypyridin-2-yl)-2-(3,5-difluorophenyl)ethyl)-2-((3b-S,4aR)-5,5-difluoro-3-(trifluoromethyl)-3b,4,4a,5-tetrahydro-1H-cyclopropa[3,4]cyclopenta[1,2-c]pyrazol-1-yl)acetamide]
CC50 (uninfected MT-4 cells): 14.2 µM
% inhibition at 0.2 μM (HIV-IIIb): 93%
% inhibition at 2 μM (HIV-IIIb): 93%

CCC(O)C#Cc1ccc(-c2ccc(Cl)c3c(NS(C)(=O)=O)nn(C)c23)c([C@H](Cc2cc(F)cc(F)c2)NC(=O)Cn2nc(C(F)(F)F)c3c2C(F)(F)[C@@H]2C[C@H]32)n1 (stereo partly drawn) [Compound 145, N-((1S)-1-(3-(4-chloro-1-methyl-3-(methylsulfonamido)-1H-indazol-7-yl)-6-(3-hydroxypent-1-yn-1-yl)pyridin-2-yl)-2-(3,5-difluorophenyl)ethyl)-2-((3b-S,4aR)-5,5-difluoro-3-(trifluoromethyl)-3b,4,4a,5-tetrahydro-1H-cyclopropa[3,4]cyclopenta[1,2-c]pyrazol-1-yl)acetamide]
CC50 (uninfected MT-4 cells): 8.69 µM
% inhibition at 0.2 μM (HIV-IIIb): 99%
% inhibition at 2 μM (HIV-IIIb): 99%

Cn1nc(NS(C)(=O)=O)c2c(Cl)ccc(-c3ccc(-c4ccccn4)nc3[C@H](Cc3cc(F)cc(F)c3)NC(=O)Cn3nc(C(F)(F)F)c4c3C(F)(F)[C@@H]3C[C@H]43)c21 [Compound 172, N—((S)-1-(5-(4-chloro-1-methyl-3-(methylsulfonamido)-1H-indazol-7-yl)-[2,2′-bipyridin]-6-yl)-2-(3,5-difluorophenyl)ethyl)-2-((3b-S,4aR)-5,5-difluoro-3-(trifluoromethyl)-3b,4,4a,5-tetrahydro-1H-cyclopropa[3,4]cyclopenta[1,2-c]pyrazol-1-yl)acetamide]
CC50 (uninfected MT-4 cells): 0.061 µM

Cn1cc(-c2ccc(-c3ccc(Cl)c4c(NS(C)(=O)=O)nn(C)c34)c([C@H](Cc3cc(F)cc(F)c3)NC(=O)Cn3nc(C(F)(F)F)c4c3C(F)(F)[C@@H]3C[C@H]43)n2)cn1 [Compound 173, N—((S)-1-(3-(4-chloro-1-methyl-3-(methylsulfonamido)-1H-indazol-7-yl)-6-(1-methyl-1H-pyrazol-4-yl)pyridin-2-yl)-2-(3,5-difluorophenyl)ethyl)-2-((3b-S,4aR)-5,5-difluoro-3-(trifluoromethyl)-3b,4,4a,5-tetrahydro-1H-cyclopropa[3,4]cyclopenta[1,2-c]pyrazol-1-yl)acetamide]
CC50 (uninfected MT-4 cells): > 43.7 µM
% inhibition at 0.2 μM (HIV-IIIb): 92%
% inhibition at 2 μM (HIV-IIIb): 92%

Cn1nc(NS(C)(=O)=O)c2c(Cl)ccc(-c3ccc(C#CC(C)(C)O)nc3[C@H](Cc3cc(F)cc(F)c3)NC(=O)Cc3ccc4ccccc4c3)c21 [Compound 200, (S)—N-(1-(3-(4 chloro-1-methyl-3-(methylsulfonamido)-1H-indazol-7-yl)-6-(3-hydroxy-3-methylbut-1-yn-1-yl)pyridin-2-yl)-2-(3,5-difluorophenyl)ethyl)-2-(naphthalen-2-yl)acetamide]
CC50 at 5 days [1]: 12.2 µM
inhibition at 0.2 µM (HIV-IIIb; Human immunodeficiency virus 1, IIIB, MT4, 120 h, read-out: % inhibition at 0.2 μM): 89%
inhibition at 2 µM (HIV-IIIb; Human immunodeficiency virus 1, IIIB, MT4, 120 h, read-out: % inhibition at 2 μM): 90%
